Values joined by “and” are separate entries in the source; they are usually repeats but may differ in a detail not shown here. Equal entries are not always repeated.
Legend:
[1] = system: wild type E. coli (ATCC 25922); assay: Bacterial cytological profiling at pH 4, 5.5, 7 (Example 7), E. coli; format: cell-based; conditions: pH 5.5 and 7
Procedure: This bacterial cytological profiling (BCP) investigation uses methods and materials described previously by Nonejuie, P., Burkart, M., Poglianoa, K., Pogiano, J. (2013). Bacterial cytological profiling rapidly identifies the cellular pathways targeted by antibacterial molecules. Proc. Natl. Acad. Sci. U.S.A. 110(40):16169-16174. doi: 10.1073/pnas.1311066110.
For viable cell counts, cells are grown to OD600≈0.4 and diluted 1:1 into buffered or unbuffered media containing various compound concentrations. Samples are then collected and serially diluted (1:10) on a 96 well plate. Five microliters from each well are spotted on LB plates, incubated at 30° C., and viable cells are counted the next day.
Samples are collected at 10, 30, 120, and 240 min of exposure for viable cell count and imaging. For imaging, E. coli and S. aureus 200 μL of treated cells per time point are stained with 0.8 μg/mL FM4-64, 1.5 μg/mL DAPI, and 0.4 μM SYTOXGreen (Molecular Probes/Invitrogen). P. aeruginosa samples are stained 0.4 μM SYTOX Green, 28 μg/mL DAPI, and 1 μg/mL FM 4-64. Cells are transferred to an agarose pad (20% LB, 1% agarose) for imaging.
For Nu-3 and Nu-8 stocks (at pH 4, 5.5 and 7), stock concentration is 500 mg/mL. For pH 4, the stocks are prepared by dissolving Nu-3 in 25 mM citrate buffer and Nu-8 in 350 mM citric acid. […]

[2] = system: Pseudomonas aeruginosa (ATCC27853); assay: Neutropenic lung infection model in mice, aerosol treatment (Example 23); format: in vivo, BALB/c mice; conditions: for Mean ± SD (Log10 CFU/g lung) / Log10 CFU/g lung: 10% aerosol, 40 min, 24 h PI; for Log10 CFU/g lung: individual mice
Procedure: Neutropenic, BALB/c female mice, all of which were from 6 to 8 weeks of age, were infected intranasally with Pseudomonas aeruginosa (ATCC27853). Twenty-four hours post infection; animals were treated intra-nasally by nebulization with Nu-8 (10% nebulized for twenty minutes, twice). At two, four and six hours post treatment, animals were terminated; lung tissues were collected to determine the bacterial load.
The mice were separated into cohorts in accordance with Table 11.
On day −4 (four days before the date of infection), each mouse was dosed with a single intraperitoneal injection of cyclophosphamide equivalent to 150 mg/kg and returned to its cage. On day −1 (one day before infection) each mouse received a dose equivalent to 100 mg/kg of cyclophosphamide.
On day −1, an aliquot from glycerol stocks of P. aeruginosa (ATCC27853) was thawed, inoculated into fresh Casein Soybean Digest Broth (CSDB) and incubated overnight at 37 C.
On the day of infection (Day 0), the overnight culture was centrifuged and the cells were pelleted and resuspended in sterile normal saline to obtain approximately 10^9 CFU/ml P. aeruginosa, which was used for infection. The inoculum was serially diluted ten-fold in sterile CSDB broth and 0.05 ml of six dilutions was plated onto CSD Agar plates to determine the viable count (CFU/ml) of inoculum.
Animals were divided into different groups as specified in the experimental design (TABLE 11). Infections were conducted in a biological safety cabinet, with appropriate personnel protection. Mice were placed into an induction chamber and anesthesia was induced by exposing the animals to 3%-5% Isoflurane in an oxygen flow set at approximately 1 liter per minute (LPM). Once the animals were in a sufficiently deep plane of anesthesia, they were removed and infected. Infection was done by instilling 0.02 ml (containing ˜1×10^9 CFU/ml) intra-nasally. 10 μl was instilled into each nostril of the anesthetized animal (˜2×10^7 CFU/animal). A gentle shaking/mixing of inoculum between two animals was followed for uniform distribution.
The vehicle used for the test compound was saline (0.9% NaCl adjusted to pH 3.5 with citric acid). To make 10% solution, 15 g Nu-8 was weighed and dissolved in 145 ml of the saline and the pH of the solution was adjusted to 3.5 with citric acid (0.1 M) in a final volume of 150 ml.
Treatment was initiated twenty four hours post infection. Test formulations were administered by aerosol route with nose only apparatus connected to a nebulizer (Omron Ne-C28 Compressor Nebulizer with a volume capacity of 15 ml, Particle size 3 μm, nebulization rate: 0.5 ml/min, and Aerosol output rate: 0.09 ml/min. At the given aerosol output rate of 0.09 ml/min, a total of 6 animals at the port, each animal will receive 15 μl/min. In 40 min, a total of 60 mg in 600 μl will be delivered to each animal). The formulation prepared previously was placed into the nebulizer fluid cup; animals were placed in the nose only apparatus and the entire system was placed inside a Class II Biosafety Cabinet. Animals received nebulization for 20 min, followed by a 30-minute rest and then an additional 20-minute exposure at the same dose concentration (the flow rate and percentage of test material available at the inhalation port was 16% of the initial concentration in the nebulizer if the test compound is in solution).
Groups of animals were euthanized at 2, 4 and 6 hours post treatment, as specified in experimental design, by an overdose of CO2 in an appropriate exposure chamber.
The euthanized animals were dipped into 70% ethanol for surface decontamination. Lungs were aseptically excised, weighed, placed in a 2 ml centrifuge tube containing 1 ml of sterile CSDB broth, and homogenized (Omni Tip (220THB handheld)). Serial ten-fold dilutions of the lung homogenates were prepared in sterile CSDB broth and 0.05 ml of four dilutions for each lung was plated onto CSDA agar plates. […]

[3] = Body weight in the Acinetobacter baumannii lung infection model (Example 25); format: in vivo, BALB/c mice
[4] = Nu-8 (10%), 3 doses, once daily for 3 days
[5] = Nu-8 (10%), 5 doses, once daily for 5 days

With CCCCOP(=O)(O)OC[C@H]1O[C@@H](n2ccc(N)nc2=O)C[C@@H]1OP(=O)(O)OCCCC [Nu-8, sodium ((2R,3S,5R)-5-(4-amino-2-oxopyrimidin-1(2H)-yl)-3-((butoxyoxidophosphor-yl)oxy)tetrahydrofuran-2-yl)methyl butyl phosphate] the “effect on cell permeability, cell viability and growth” value [1] was “alters E. coli cell permeability and reduces cell viability and growth”, the “Mean ± SD (Log10 CFU/g lung)” value ([2]; 2 h post end of treatment) was 4.92 ± 0.19 Log10 CFU/g lung and the “Log10 CFU/g lung” value ([2]; 2 h post end of treatment) was 4.89 Log10 CFU/g lung and 4.76 Log10 CFU/g lung and 4.94 Log10 CFU/g lung and 4.98 Log10 CFU/g lung and 5.24 Log10 CFU/g lung and 4.70 Log10 CFU/g lung. For the same compound, the “Mean ± SD (Log10 CFU/g lung)” value ([2]; 4 h post end of treatment) was 4.82 ± 0.26 Log10 CFU/g lung, the “Log10 CFU/g lung” value ([2]; 4 h post end of treatment) was 4.51 Log10 CFU/g lung and 5.20 Log10 CFU/g lung and 5.02 Log10 CFU/g lung and 4.64 Log10 CFU/g lung (2×) and 4.88 Log10 CFU/g lung and the “Mean ± SD (Log10 CFU/g lung)” value ([2]; 6 h post end of treatment) was 4.68 ± 0.26 Log10 CFU/g lung. The “Log10 CFU/g lung” value ([2]; 6 h post end of treatment) was 4.58 Log10 CFU/g lung and 4.53 Log10 CFU/g lung and 5.16 Log10 CFU/g lung and 4.41 Log10 CFU/g lung and 4.60 Log10 CFU/g lung and 4.78 Log10 CFU/g lung, the “antibacterial activity vs vehicle control at 2 h and 4 h” value ([2]; 10%, 2, 4 and 6 hours post administration, p<0.05) was “significant antibacterial activity” and the “animal condition during the study period” value ([2]; all groups) was “no abnormalities were detected”. For the same compound, the “Body Weight (g) Mean ± SD Day 0” value [3, 4] was 25.0 ± 0.6 g, the “Body Weight (g) Mean ± SD Day 1” value [3, 4] was 24.3 ± 0.5 g and the “Body Weight (g) Mean ± SD Day 3” value [3, 4] was 23.7 ± 0.5 g. For the same compound, the “Body Weight (g) Mean ± SD Day 0” value [3, 5] was 24.8 ± 0.8 g, the “Body Weight (g) Mean ± SD Day 1” value [3, 5] was 24.0 ± 0.6 g and the “Body Weight (g) Mean ± SD Day 2” value ([3]; Nu-8 (10%), 5 doses, once daily for 5 days, Day 2) was 23.3 ± 0.5 g. The “Body Weight (g) Mean ± SD Day 3” value [3, 5] was 23.2 ± 0.8 g, the “Body Weight (g) Mean ± SD Day 4” value ([3]; Nu-8 (10%), 5 doses, once daily for 5 days, Day 4) was 23.3 ± 1.0 g and the “Body Weight (g) Mean ± SD Day 5” value ([3]; Nu-8 (10%), 5 doses, once daily for 5 days, Day 5) was 24.0 ± 0.6 g. For the same compound, the “Body Weight (g) Mean ± SD Day 0” value ([3]; Nu-8 (10%), single dose) was 24.8 ± 0.8 g, the “Body Weight (g) Mean ± SD Day 1” value ([3]; Nu-8 (10%), single dose) was 24.0 ± 0.9 g and the “change in mean body weights” value ([3]; vehicle and treatment groups) was “Decreases in mean body weights were observed”.
